Data reported in patent publication US20200246277A1, “Composition For Alleviating, Preventing Or Treating Premenstrual Syndrome, Containing, As Active Ingredient, Pinitol, D-Chiro-Inositol Or Analog Compound Thereof” (DY NATURAL CO., LTD., priority 2015, published 2020).
Entries after “also recorded” stand apart in the source; their conditions may differ.

System: premenstrual syndrome
Experiment: Blind test with questionnaire survey: alleviating effect on premenstrual syndrome, once a day for eight weeks
Assay type: in vivo, women
Conditions: for alleviation, percentage / alleviation, the number of people / complete alleviation, percentage / complete alleviation, the number of people / no change, percentage / no change, the number of people / significant alleviation, percentage / significant alleviation, the number of people: eight weeks
Source text: 1. Evaluation of Administration of Pinitol or D-Chiro-Inositol to Female Subject Pinitol and D-chiro-inositol were purchased from Biosearch Life (Camino de Purchil, 66. 18004 Granada, Spain). Selected as experiment subjects were 80 normal women of reproductive age, that is, 80 women at the age of 25-40 who had neither skipped three or more cycles of menstruation, nor been administered with a contraceptive pill, and nor received a psychiatric treatment. Of them, 40 persons were classified into four groups of 10 which were then administered respectively with a placebo free of pinitol and having no pharmaceutical effects and with pinitol at three different doses. Likewise, the remaining 40 persons were equally divided into one placebo group and three experimental groups to which D-chiro-inositol was administered at three different doses, respectively. A blind test was conducted in which the placebo and pinitol or D-chiro-inositol was administered once a day for eight weeks. Pinitol or D-chiro-inositol was administered at daily doses of 600 mg, 1,200 mg, and 2,400 mg for eight weeks. A survey was made of the experimental subjects before and after the clinical test of placebo and pinitol or D-chiro-inositol to evaluate the alleviating effect of pinitol or D-chiro-inositol on premenstrual syndrome. 2. Survey In the present disclosure, the questionnaire that experimental subjects had completed with respect to the severity of premenstrual syndrome were analyzed. The experimental subjects evaluated the placebo, pinitol, or D-chiro-inositol for a pharmacological effect on premenstrual syndrome on the basis of four grades: complete alleviation, significant alleviation, somewhat alleviation, and no change for dysmenorrhea, a period of dysmenorrhea, and coldness of hands and feet. [table]

[1] = administration group of 1,200 mg or 2,400 mg
[2] = coldness of hands and feet, 600 mg a day
[3] = coldness of hands and feet, 1,200 mg a day
[4] = coldness of hands and feet, 2,400 mg a day
[5] = period of dysmenorrhea, 600 mg a day
[6] = period of dysmenorrhea, 1,200 mg a day
[7] = period of dysmenorrhea, 2,400 mg a day

## O[C@H]1[C@H](O)[C@H](O)[C@@H](O)[C@H](O)[C@H]1O [DCI, D-chiro-inositol]
Administration group of 600 mg, across main symptoms
  share of group with somewhat or significant alleviation of the main symptoms of premenstrual syndrome: 50-60%
Administration group of 1,200 mg
  share of group with complete alleviation of the main symptoms: ≥ 50%
[1]
  share of group that answered alleviation in the main symptoms: 80-90%
  share of group that did not feel changes in the main symptoms of premenstrual syndrome: 10%
Administration group of 2,400 mg
  share of group with complete alleviation of the main symptoms: 70-80%
[2]
  alleviation, percentage: 30.0%
  alleviation, the number of people: 3 person
  complete alleviation, percentage: 0.0%
  complete alleviation, the number of people: 0 person
  no change, percentage: 50.0%
  no change, the number of people: 5 person
  significant alleviation, percentage: 20.0%
  significant alleviation, the number of people: 2 person
[3]
  alleviation, percentage: 20.0%
  alleviation, the number of people: 2 person
  complete alleviation, percentage: 50.0%
  complete alleviation, the number of people: 5 person
  no change, percentage: 10.0%
  no change, the number of people: 1 person
  significant alleviation, percentage: 20.0%
  significant alleviation, the number of people: 2 person
[4]
  alleviation, percentage: 0.0%
  alleviation, the number of people: 0 person
  complete alleviation, percentage: 80.0%
  complete alleviation, the number of people: 8 person
  no change, percentage: 10.0%
  no change, the number of people: 1 person
  significant alleviation, percentage: 10.0%
  significant alleviation, the number of people: 1 person
Daily dose of 600 mg, 1,200 mg, and 2,400 mg
  effect on the main symptoms of premenstrual syndrome (dysmenorrhea, period of dysmenorrhea, coldness of hands and feet), in words: Significant reductions; also recorded: significantly alleviating
dysmenorrhea, 600 mg a day
  alleviation, percentage: 20.0%
  alleviation, the number of people: 2 person
  complete alleviation, percentage: 0.0%
  complete alleviation, the number of people: 0 person
  no change, percentage: 40.0%
  no change, the number of people: 4 person
  significant alleviation, percentage: 40.0%
  significant alleviation, the number of people: 4 person
dysmenorrhea, 1,200 mg a day
  alleviation, percentage: 20.0%
  alleviation, the number of people: 2 person
  complete alleviation, percentage: 50.0%
  complete alleviation, the number of people: 5 person
  no change, percentage: 0.0%
  no change, the number of people: 0 person
  significant alleviation, percentage: 30.0%
  significant alleviation, the number of people: 3 person
dysmenorrhea, 2,400 mg a day
  alleviation, percentage: 0.0%
  alleviation, the number of people: 0 person
  complete alleviation, percentage: 90.0%
  complete alleviation, the number of people: 9 person
  no change, percentage: 0.0%
  no change, the number of people: 0 person
  significant alleviation, percentage: 10.0%
  significant alleviation, the number of people: 1 person
[5]
  alleviation, percentage: 20.0%
  alleviation, the number of people: 2 person
  complete alleviation, percentage: 0.0%
  complete alleviation, the number of people: 0 person
  no change, percentage: 50.0%
  no change, the number of people: 5 person
  significant alleviation, percentage: 30.0%
  significant alleviation, the number of people: 3 person
[6]
  alleviation, percentage: 10.0%
  alleviation, the number of people: 1 person
  complete alleviation, percentage: 60.0%
  complete alleviation, the number of people: 6 person
  no change, percentage: 10.0%
  no change, the number of people: 1 person
  significant alleviation, percentage: 20.0%
  significant alleviation, the number of people: 2 person
[7]
  alleviation, percentage: 0.0%
  alleviation, the number of people: 0 person
  complete alleviation, percentage: 80.0%
  complete alleviation, the number of people: 8 person
  no change, percentage: 0.0%
  no change, the number of people: 0 person
  significant alleviation, percentage: 20.0%
  significant alleviation, the number of people: 2 person
